# Laboratory results taken from paper PMC3108484 (Frontiers in Pharmacology, 2011).
# Where “and” joins values, the source holds several entries; their conditions need not be identical. Identical values can stand only once.
# Columns and labels:
# [1] = system: healthy human subjects; assay: Human single ascending dose study, bowel movements; type: in vivo
# [2] = system: rat esophagus; assay: Rat esophageal relaxation; type: in vivo; details: cumulative i.d. dosing, anesthetized rats
# [3] = target: Rat galanin (non-selective); assay: Radioligand binding: Rat galanin; details: [125I]-galanin 0.05 nM
# [4] = target: Human 5-HT2C (Homo sapiens, UniProt P28335); assay: Radioligand binding: Human 5-HT2C
# [5] = target: K+V channel; type: binding; details: [125I]-α-dendrotoxin 0.01 nM
# [6] = target: Human CCK2 (CCKB) (Homo sapiens, UniProt P32239); assay: Radioligand binding: Human CCK2
# Sequence of Human CCK2 (CCKB) (P32239 whole entry): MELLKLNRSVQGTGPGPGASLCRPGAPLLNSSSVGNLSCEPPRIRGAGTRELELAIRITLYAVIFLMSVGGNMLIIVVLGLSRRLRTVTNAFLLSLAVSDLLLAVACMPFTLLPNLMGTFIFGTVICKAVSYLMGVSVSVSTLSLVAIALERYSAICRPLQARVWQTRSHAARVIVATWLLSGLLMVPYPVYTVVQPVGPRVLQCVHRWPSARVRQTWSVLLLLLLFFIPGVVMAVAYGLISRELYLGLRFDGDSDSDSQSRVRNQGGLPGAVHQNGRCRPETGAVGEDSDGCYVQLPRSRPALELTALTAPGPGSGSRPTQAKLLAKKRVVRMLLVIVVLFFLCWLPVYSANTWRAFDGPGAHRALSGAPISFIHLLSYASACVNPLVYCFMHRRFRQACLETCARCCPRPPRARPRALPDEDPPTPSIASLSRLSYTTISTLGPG
# [7] = target: Human CCK1 (CCKA) (Homo sapiens, UniProt P32238); assay: Radioligand binding: Human CCK1
# [8] = target: Human A1 (Homo sapiens, UniProt P30542); assay: Radioligand binding: Human A1
# Sequence of Human A1 (P30542 whole entry): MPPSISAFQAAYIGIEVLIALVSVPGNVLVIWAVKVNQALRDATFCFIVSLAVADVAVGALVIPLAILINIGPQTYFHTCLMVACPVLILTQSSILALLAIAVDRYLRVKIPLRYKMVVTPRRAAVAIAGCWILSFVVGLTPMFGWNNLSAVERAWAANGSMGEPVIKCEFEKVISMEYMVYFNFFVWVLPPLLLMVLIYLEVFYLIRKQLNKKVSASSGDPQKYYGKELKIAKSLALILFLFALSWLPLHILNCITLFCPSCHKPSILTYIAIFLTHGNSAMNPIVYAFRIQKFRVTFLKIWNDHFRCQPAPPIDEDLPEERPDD
# [9] = target: Mouse sst (non-selective); assay: Radioligand binding: Mouse sst; details: [125I]-Tyr11-somatostatin 0.05 nM
# [10] = target: Human VPAC2 (VIP2) (Homo sapiens, UniProt P41587); assay: Radioligand binding: Human VPAC2
# Sequence of Human VPAC2 (VIP2) (P41587 24-438): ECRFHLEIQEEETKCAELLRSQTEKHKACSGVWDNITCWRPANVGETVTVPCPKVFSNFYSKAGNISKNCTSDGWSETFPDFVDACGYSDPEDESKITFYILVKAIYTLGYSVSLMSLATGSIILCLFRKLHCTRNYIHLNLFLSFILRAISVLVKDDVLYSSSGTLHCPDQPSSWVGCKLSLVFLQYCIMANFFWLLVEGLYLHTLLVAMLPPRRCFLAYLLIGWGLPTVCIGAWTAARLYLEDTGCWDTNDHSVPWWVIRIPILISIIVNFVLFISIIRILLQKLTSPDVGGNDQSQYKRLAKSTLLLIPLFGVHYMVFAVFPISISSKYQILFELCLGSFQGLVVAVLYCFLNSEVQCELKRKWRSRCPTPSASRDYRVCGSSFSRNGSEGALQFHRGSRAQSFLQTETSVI
# [11] = target: Human motilin (Homo sapiens, UniProt O43193); assay: Radioligand binding: Human motilin
# [12] = target: Human 5-HT2B (Homo sapiens, UniProt P41595); assay: Radioligand binding: Human 5-HT2B
# [13] = target: Human D4.4 (Homo sapiens, UniProt P21917); assay: Radioligand binding: Human D4.4
# Sequence of Human D4.4 (P21917 whole entry): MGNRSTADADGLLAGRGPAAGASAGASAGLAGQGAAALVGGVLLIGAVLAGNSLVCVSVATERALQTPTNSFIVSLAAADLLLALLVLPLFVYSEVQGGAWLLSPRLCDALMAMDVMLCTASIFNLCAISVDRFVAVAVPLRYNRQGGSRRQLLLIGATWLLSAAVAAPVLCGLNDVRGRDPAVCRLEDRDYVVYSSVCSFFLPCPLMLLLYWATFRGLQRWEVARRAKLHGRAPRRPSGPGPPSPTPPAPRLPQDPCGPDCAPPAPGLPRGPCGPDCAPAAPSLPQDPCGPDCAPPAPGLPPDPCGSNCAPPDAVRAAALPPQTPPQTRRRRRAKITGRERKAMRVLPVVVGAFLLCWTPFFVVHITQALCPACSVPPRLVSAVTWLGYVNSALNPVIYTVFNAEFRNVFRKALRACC
# [14] = target: Human NK1 (Homo sapiens, UniProt P25103); assay: Radioligand binding: Human NK1
# Sequence of Human NK1 (P25103 whole entry): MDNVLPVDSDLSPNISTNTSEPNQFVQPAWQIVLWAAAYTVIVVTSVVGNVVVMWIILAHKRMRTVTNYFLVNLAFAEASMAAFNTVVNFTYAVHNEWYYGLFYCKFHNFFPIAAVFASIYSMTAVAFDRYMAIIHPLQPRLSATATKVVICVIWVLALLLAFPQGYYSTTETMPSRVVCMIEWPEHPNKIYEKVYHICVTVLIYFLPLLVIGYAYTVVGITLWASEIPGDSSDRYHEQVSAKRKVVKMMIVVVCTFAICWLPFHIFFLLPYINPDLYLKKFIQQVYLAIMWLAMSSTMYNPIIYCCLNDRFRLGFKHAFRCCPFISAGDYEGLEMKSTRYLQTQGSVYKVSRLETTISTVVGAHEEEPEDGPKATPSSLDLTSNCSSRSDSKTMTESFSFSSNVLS
# [15] = target: Human ETA (Homo sapiens, UniProt P25101); assay: Radioligand binding: Human ETA
# [16] = target: Rat α4β2 nAChR (α-BGTX-insensitive) (Rattus norvegicus, UniProt P09483+P12390); assay: Radioligand binding: Rat α4β2 nAChR
# Sequence of Rat α4β2 nAChR (α-BGTX-insensitive) (P09483 31-630): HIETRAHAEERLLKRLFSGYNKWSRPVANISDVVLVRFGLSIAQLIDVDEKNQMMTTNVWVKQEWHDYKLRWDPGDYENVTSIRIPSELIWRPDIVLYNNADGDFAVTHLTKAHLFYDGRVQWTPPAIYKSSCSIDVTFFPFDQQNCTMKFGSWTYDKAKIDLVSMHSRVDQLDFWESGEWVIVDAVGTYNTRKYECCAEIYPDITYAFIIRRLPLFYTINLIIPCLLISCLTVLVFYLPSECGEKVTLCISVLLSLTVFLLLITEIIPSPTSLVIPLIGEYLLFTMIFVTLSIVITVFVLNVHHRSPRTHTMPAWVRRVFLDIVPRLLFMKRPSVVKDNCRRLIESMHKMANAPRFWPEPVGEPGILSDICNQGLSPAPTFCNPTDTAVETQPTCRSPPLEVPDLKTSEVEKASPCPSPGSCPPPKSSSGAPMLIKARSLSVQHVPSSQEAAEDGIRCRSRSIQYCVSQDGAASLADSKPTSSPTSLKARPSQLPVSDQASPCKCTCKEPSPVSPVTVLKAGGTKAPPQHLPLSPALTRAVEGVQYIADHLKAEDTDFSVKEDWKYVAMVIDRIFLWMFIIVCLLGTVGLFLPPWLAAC
# Sequence of Rat α4β2 nAChR (α-BGTX-insensitive) (P12390 25-500): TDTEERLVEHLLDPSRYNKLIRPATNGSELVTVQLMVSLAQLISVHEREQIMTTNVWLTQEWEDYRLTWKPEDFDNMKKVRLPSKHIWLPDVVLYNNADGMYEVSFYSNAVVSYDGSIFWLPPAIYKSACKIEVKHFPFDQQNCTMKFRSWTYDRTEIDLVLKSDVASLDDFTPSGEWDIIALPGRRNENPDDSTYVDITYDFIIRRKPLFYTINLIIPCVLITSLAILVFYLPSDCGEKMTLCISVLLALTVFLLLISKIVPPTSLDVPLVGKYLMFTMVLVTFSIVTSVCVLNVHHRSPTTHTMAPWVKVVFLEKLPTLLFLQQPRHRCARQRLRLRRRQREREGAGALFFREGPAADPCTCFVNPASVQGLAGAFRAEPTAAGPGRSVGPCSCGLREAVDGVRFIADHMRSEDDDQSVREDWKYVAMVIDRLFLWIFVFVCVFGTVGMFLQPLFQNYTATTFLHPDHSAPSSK
# [17] = target: Rat P2Y; assay: Radioligand binding: Rat P2Y; details: [35S]-dATP αS 10 nM
# [18] = target: Rat Ca2+ channel (L, diltiazem site); assay: Radioligand binding: Rat Ca2+ channel; details: [3H]-diltiazem 5 nM
# [19] = system: canine antrum, duodenum, and jejunum; assay: Dog gastrointestinal contractility; type: in vivo; details: oral, conscious fasted dogs
# [20] = target: Human A2A (Homo sapiens, UniProt P29274); assay: Radioligand binding: Human A2A
# [21] = target: Human B2 (Homo sapiens, UniProt P30411); assay: Radioligand binding: Human B2
# Sequence of Human B2 (P30411 whole entry): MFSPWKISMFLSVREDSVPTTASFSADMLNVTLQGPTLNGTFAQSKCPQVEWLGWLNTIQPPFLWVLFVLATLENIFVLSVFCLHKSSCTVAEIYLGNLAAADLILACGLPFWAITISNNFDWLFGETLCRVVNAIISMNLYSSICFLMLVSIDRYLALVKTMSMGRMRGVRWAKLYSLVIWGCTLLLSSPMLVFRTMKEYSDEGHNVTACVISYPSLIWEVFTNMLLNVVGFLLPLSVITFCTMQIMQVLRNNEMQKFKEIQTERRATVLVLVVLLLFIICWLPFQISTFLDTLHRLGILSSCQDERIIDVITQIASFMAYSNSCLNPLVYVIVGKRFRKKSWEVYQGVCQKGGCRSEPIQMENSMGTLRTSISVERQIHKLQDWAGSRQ
# [22] = target: Human β1 (Homo sapiens, UniProt P08588); assay: Radioligand binding: Human β1
# [23] = target: Human VPAC1 (VIP1) (Homo sapiens, UniProt P32241); assay: Radioligand binding: Human VPAC1
# Sequence of Human VPAC1 (VIP1) (P32241 31-457): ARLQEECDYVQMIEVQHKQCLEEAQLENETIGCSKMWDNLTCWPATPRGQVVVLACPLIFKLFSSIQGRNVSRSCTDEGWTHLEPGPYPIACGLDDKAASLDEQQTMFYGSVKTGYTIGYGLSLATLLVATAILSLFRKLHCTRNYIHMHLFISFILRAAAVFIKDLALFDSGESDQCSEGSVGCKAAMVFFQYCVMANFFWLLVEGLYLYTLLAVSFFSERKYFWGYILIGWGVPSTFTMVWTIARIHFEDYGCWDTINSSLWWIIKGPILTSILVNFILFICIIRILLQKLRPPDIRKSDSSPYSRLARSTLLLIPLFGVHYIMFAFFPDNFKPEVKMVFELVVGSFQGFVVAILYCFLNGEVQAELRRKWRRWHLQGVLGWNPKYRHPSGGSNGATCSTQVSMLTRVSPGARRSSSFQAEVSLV
# [24] = target: Human 5-HT1A (Homo sapiens, UniProt P08908); assay: Radioligand binding: Human 5-HT1A
# [25] = target: 5-HT4 receptor (Cavia porcellus, UniProt O70528); assay: Guinea pig colonic longitudinal muscle/myenteric plexus; details: isolated tissue, % of primed 5-HT (0.3 μM) maximum
# Sequence of 5-HT4 receptor (O70528 whole entry): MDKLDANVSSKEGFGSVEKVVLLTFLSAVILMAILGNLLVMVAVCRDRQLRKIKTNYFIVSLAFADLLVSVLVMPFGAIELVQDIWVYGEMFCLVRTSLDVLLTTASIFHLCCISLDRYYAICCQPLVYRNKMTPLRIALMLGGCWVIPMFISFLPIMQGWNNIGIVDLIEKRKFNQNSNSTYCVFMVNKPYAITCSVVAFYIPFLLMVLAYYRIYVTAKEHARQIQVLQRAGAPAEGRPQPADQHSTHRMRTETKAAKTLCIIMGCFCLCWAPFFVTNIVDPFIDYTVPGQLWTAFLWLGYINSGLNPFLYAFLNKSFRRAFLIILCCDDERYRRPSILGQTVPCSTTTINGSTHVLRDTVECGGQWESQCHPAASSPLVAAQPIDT
# [26] = target: Human COX2 (Homo sapiens, UniProt P35354); assay: Enzyme inhibition: Human COX2
# Sequence of Human COX2 (P35354 18-604): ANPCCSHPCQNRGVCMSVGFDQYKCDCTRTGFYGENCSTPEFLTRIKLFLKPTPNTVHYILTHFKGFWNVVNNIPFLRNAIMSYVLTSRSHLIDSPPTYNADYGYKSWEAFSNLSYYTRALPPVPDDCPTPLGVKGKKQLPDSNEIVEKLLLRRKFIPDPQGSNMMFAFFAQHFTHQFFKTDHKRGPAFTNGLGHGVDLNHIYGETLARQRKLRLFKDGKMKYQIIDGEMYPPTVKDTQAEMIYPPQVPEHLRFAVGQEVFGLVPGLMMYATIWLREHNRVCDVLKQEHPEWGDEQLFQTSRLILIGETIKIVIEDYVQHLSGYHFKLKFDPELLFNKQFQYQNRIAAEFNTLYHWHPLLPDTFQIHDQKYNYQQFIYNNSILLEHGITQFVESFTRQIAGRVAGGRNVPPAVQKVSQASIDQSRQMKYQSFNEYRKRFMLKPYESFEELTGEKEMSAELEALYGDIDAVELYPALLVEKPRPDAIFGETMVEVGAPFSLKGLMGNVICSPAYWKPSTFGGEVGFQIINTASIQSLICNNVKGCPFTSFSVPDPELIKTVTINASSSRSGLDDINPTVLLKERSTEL
# [27] = target: SK+Ca channel; assay: Radioligand binding: SK+Ca channel; details: [125I]-apamin 0.004 nM
# [28] = system: conscious guinea pigs; assay: Guinea pig colonic transit of carmine red dye; type: in vivo; details: s.c., maximum effect already achieved
# [29] = target: Rat BB (non-selective); assay: Radioligand binding: Rat BB; details: [125I]-[Tyr4]-bombesin 0.01 nM
# [30] = target: Rat AMPA; assay: Radioligand binding: Rat AMPA; details: [3H]-AMPA 8 nM
# [31] = target: Rat σ (non-selective); assay: Radioligand binding: Rat σ; details: [3H]-DTG 8 nM
# [32] = target: Human 5-HT3a (Homo sapiens, UniProt P46098); assay: Radioligand binding: Human 5-HT3a
# [33] = target: Rat kainate; assay: Radioligand binding: Rat kainate; details: [3H]-kainic acid 5 nM
# [34] = read-out: % Inhibition of specific binding (1 μM)
structure (smiles),measurement,setting,value
"COC(=O)N1CCC(CN2CCC(CNC(=O)c3cccc4[nH]c(C(C)C)nc34)CC2)CC1 [TD-8954, 4-(4-{[(2-isopropyl-1H-benzoimidazole-4-carbonyl)amino]methyl}-piperidin-1-ylmethyl)piperidine-1-carboxylic acid methyl ester]",dose producing a maximal response,[1]; single oral dose,0.5 mg
same,lowest dose associated with a prokinetic effect,[1]; single oral dose,0.1 mg
same,time to first bowel movement compared to placebo,"[1]; single oral dose 0.1–20 mg, p < 0.05",statistically significant reduction
same,dose associated with a relaxation response of 0.1 mm,[2],0.23 mg/kg
same,pKi,[3],<6
same,% Inhibition of specific binding (1 μM),[3]; TD-8954 1 μM,1%
same,Ki,[4],> 1 µM
same,pKi,[5],<6
same,% Inhibition of specific binding (1 μM),[5]; TD-8954 1 μM,−5%
same,Ki,[6],> 1 µM
same,inhibition at 1 µM,[6]; [34],-1%
same,Ki,[7],> 1 µM
same,Ki,[8],> 1 µM
same,inhibition at 1 µM,[8]; [34],-4%
same,pKi,[9],<6
same,% Inhibition of specific binding (1 μM),[9]; TD-8954 1 μM,−6%
same,Ki,[10],> 1 µM
same,inhibition at 1 µM,[10]; [34],-19%
same,Ki,[11],> 1 µM
same,Ki,[12],> 1 µM
same,Ki,[13],> 1 µM
same,inhibition at 1 µM,[13]; [34],6%
same,Ki,[14],> 1 µM
same,inhibition at 1 µM,[14]; [34],-2%
same,Ki,[15],> 1 µM
same,Ki,[16],> 1 µM
same,inhibition at 1 µM,[16]; [34],-2%
same,pKi,[17],<6
same,% Inhibition of specific binding (1 μM),[17]; TD-8954 1 μM,8%
same,pKi,[18],<6
same,onset of contractile activity after dosing,[19],≤ 10 min
same,"effect on contractility in the antrum, duodenum, and jejunum","[19]; TD-8954 0.01 and 0.03 mg/kg, tegaserod 0.1 and 0.3 mg/kg",increases in contractility
same,Ki,[20],> 1 µM
same,% Inhibition of specific binding (1 μM),"[20]; Human A2A, [3H]-CGS 21680 6 nM, TD-8954 1 μM",16%
same,Ki,[21],> 1 µM
same,inhibition at 1 µM,[21]; [34],3%
same,Ki,[22],> 1 µM
same,Ki,[23],> 1 µM
same,inhibition at 1 µM,[23]; [34],2%
same,Ki,[24],> 1 µM
same,Guinea pig colonic LMMP contractile activity IA (mean % 5-HT max ± SEM),[25],55 % 5-HT max and 55 ± 2 % 5-HT max
same,IC50,[26],> 1 µM
same,inhibition at 1 µM,[26]; read-out: % Inhibition of control (1 μM),-36%
same,pKi,[27],<6
same,% Inhibition of specific binding (1 μM),[27]; TD-8954 1 μM,−4%
same,"lowest dose tested, significantly active on colonic transit",[28],0.03 mg/kg
same,pKi,[29],<6
same,% Inhibition of specific binding (1 μM),[29]; TD-8954 1 μM,4%
same,pKi,[30],<6
same,% Inhibition of specific binding (1 μM),[30]; TD-8954 1 μM,−4%
same,pKi,[31],<6
same,Ki,[32],> 100 µM
same,pKi,[33],<6
same,% Inhibition of specific binding (1 μM),[33]; TD-8954 1 μM,−6%
